{"source": "PubChem BioAssay (NCI)", "assay_in_all_cases": "NCI tumour cell line growth inhibition, 48 h", "key": {"[1]": {"tested_on": "OVCAR-5 ovarian"}, "[2]": {"tested_on": "SNB-19 CNS"}, "[3]": {"tested_on": "HOP-18 NSCLC"}, "[4]": {"tested_on": "SK-OV-3 ovarian"}, "[5]": {"tested_on": "NCI/ADR-RES ovarian"}, "[6]": {"tested_on": "IGROV1 ovarian"}, "[7]": {"tested_on": "SK-MEL-2 melanoma"}, "[8]": {"tested_on": "KM20L2 colon"}, "[9]": {"tested_on": "HOP-92 NSCLC"}, "[10]": {"tested_on": "DMS 114 small cell lung"}, "[11]": {"tested_on": "DLD-1 colon"}, "[12]": {"tested_on": "CCRF-CEM leukemia"}, "[13]": {"tested_on": "A549 NSCLC"}, "[14]": {"tested_on": "M19-MEL melanoma"}, "[15]": {"tested_on": "SF-295 CNS"}, "[16]": {"tested_on": "HT29 colon"}, "[17]": {"tested_on": "P388/ADR leukemia"}, "[18]": {"tested_on": "HL-60(TB) leukemia"}, "[19]": {"tested_on": "XF 498 CNS"}, "[20]": {"tested_on": "CAKI-1 renal"}, "[21]": {"tested_on": "P388 leukemia"}, "[22]": {"tested_on": "NCI-H522 lung"}, "[23]": {"tested_on": "HCT-116 colon"}, "[24]": {"tested_on": "RXF 393 renal"}, "[25]": {"tested_on": "HOP-62 NSCLC"}, "[26]": {"tested_on": "MCF7 breast"}, "[27]": {"tested_on": "NCI-H23 lung"}, "[28]": {"tested_on": "DMS 273 small cell lung"}, "[29]": {"tested_on": "OVCAR-8 ovarian"}}, "note": "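Values below derive from 48-hour exposures of cells grown in 96-well plates, with endpoints linearly interpolated between the two concentrations bracketing the appropriate inhibition level. GI50 marks 50% less growth. TGI: concentration producing complete growth inhibition.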 Activity calls are given as the source filed them. Cut-off read from the data, not from the text of the source: active = GI50 below about 0.43 µM; inactive = the rest.", "data": [{"smiles": "C=Cc1ccccc1", "note": "(tested in a mixture with another compound)", "values": [{"measurement": "TGI", "setting": "[1]", "result": "> 75", "unit": "µg/mL"}, {"measurement": "GI50", "setting": "[2]", "result": "> 75", "unit": "µg/mL"}, {"measurement": "TGI", "setting": "[2]", "result": "> 75", "unit": "µg/mL"}, {"measurement": "outcome", "setting": "[3]", "result": "inactive"}, {"measurement": "GI50", "setting": "[4]", "result": "> 75", "unit": "µg/mL"}, {"measurement": "TGI", "setting": "[4]", "result": "> 75", "unit": "µg/mL"}, {"measurement": "GI50", "setting": "[5]", "result": "> 75", "unit": "µg/mL"}, {"measurement": "TGI", "setting": "[5]", "result": "> 75", "unit": "µg/mL"}, {"measurement": "GI50", "setting": "[6]", "result": "> 75", "unit": "µg/mL"}, {"measurement": "TGI", "setting": "[6]", "result": "> 75", "unit": "µg/mL"}, {"measurement": "GI50", "setting": "[7]", "result": "> 75", "unit": "µg/mL"}, {"measurement": "TGI", "setting": "[7]", "result": "> 75", "unit": "µg/mL"}, {"measurement": "outcome", "setting": "[8]", "result": "inactive"}, {"measurement": "GI50", "setting": "[9]", "result": 59.5, "unit": "µg/mL"}, {"measurement": "TGI", "setting": "[9]", "result": "> 75", "unit": "µg/mL"}, {"measurement": "GI50", "setting": "[10]", "result": "> 75", "unit": "µg/mL"}, {"measurement": "TGI", "setting": "[10]", "result": "> 75", "unit": "µg/mL"}, {"measurement": "GI50", "setting": "[11]", "result": "> 75", "unit": "µg/mL"}, {"measurement": "TGI", "setting": "[11]", "result": "> 75", "unit": "µg/mL"}, {"measurement": "GI50", "setting": "[12]", "result": "> 75", "unit": "µg/mL"}, {"measurement": "TGI", "setting": "[12]", "result": "> 75", "unit": "µg/mL"}, {"measurement": "GI50", "setting": "[13]", "result": "> 75", "unit": "µg/mL"}, {"measurement": "TGI", "setting": "[13]", "result": "> 75", "unit": "µg/mL"}, {"measurement": "GI50", "setting": "[14]", "result": "> 75", "unit": "µg/mL"}, {"measurement": "TGI", "setting": "[14]", "result": "> 75", "unit": "µg/mL"}, {"measurement": "GI50", "setting": "[15]", "result": "> 75", "unit": "µg/mL"}, {"measurement": "TGI", "setting": "[15]", "result": "> 75", "unit": "µg/mL"}, {"measurement": "GI50", "setting": "[16]", "result": "> 75", "unit": "µg/mL"}, {"measurement": "TGI", "setting": "[16]", "result": "> 75", "unit": "µg/mL"}, {"measurement": "GI50", "setting": "[17]", "result": "> 75", "unit": "µg/mL"}, {"measurement": "TGI", "setting": "[17]", "result": "> 75", "unit": "µg/mL"}, {"measurement": "GI50", "setting": "[18]", "result": "> 75", "unit": "µg/mL"}, {"measurement": "TGI", "setting": "[18]", "result": "> 75", "unit": "µg/mL"}, {"measurement": "outcome", "setting": "[19]", "result": "inactive"}, {"measurement": "GI50", "setting": "[20]", "result": "> 75", "unit": "µg/mL"}, {"measurement": "TGI", "setting": "[20]", "result": "> 75", "unit": "µg/mL"}, {"measurement": "GI50", "setting": "[21]", "result": "> 75", "unit": "µg/mL"}, {"measurement": "TGI", "setting": "[21]", "result": "> 75", "unit": "µg/mL"}, {"measurement": "GI50", "setting": "[22]", "result": "> 75", "unit": "µg/mL"}, {"measurement": "TGI", "setting": "[22]", "result": "> 75", "unit": "µg/mL"}, {"measurement": "GI50", "setting": "[23]", "result": "> 75", "unit": "µg/mL"}, {"measurement": "TGI", "setting": "[23]", "result": "> 75", "unit": "µg/mL"}, {"measurement": "GI50", "setting": "[24]", "result": "> 75", "unit": "µg/mL"}, {"measurement": "TGI", "setting": "[24]", "result": "> 75", "unit": "µg/mL"}, {"measurement": "GI50", "setting": "[25]", "result": 48.4, "unit": "µg/mL"}, {"measurement": "TGI", "setting": "[25]", "result": "> 75", "unit": "µg/mL"}, {"measurement": "GI50", "setting": "[26]", "result": "> 75", "unit": "µg/mL"}, {"measurement": "TGI", "setting": "[26]", "result": "> 75", "unit": "µg/mL"}, {"measurement": "GI50", "setting": "[27]", "result": "> 75", "unit": "µg/mL"}, {"measurement": "TGI", "setting": "[27]", "result": "> 75", "unit": "µg/mL"}, {"measurement": "GI50", "setting": "[28]", "result": "> 75", "unit": "µg/mL"}, {"measurement": "TGI", "setting": "[28]", "result": "> 75", "unit": "µg/mL"}, {"measurement": "GI50", "setting": "[29]", "result": 63.3, "unit": "µg/mL"}, {"measurement": "TGI", "setting": "[29]", "result": "> 75", "unit": "µg/mL"}]}]}
